Results on one molecule are retold here after patent US9339488B2, “Anti-cervical cancer compound and method of use thereof” (Hong Kong Baptist University, priority 2013, dated 2016).

One data set deals with HeLa LC3-GFP cells. As to the kind of experiment: Fluorescence microscopy of GFP-LC3 puncta formation (autophagy). The class given is cell-based, human. The note with it: 1-20 μM for 24 hours, 10 μM for 6, 12 and 24 hours, FIG. 1, 2. As to the method: LC3, a known autophagy indicator, is used to show Griffipavixanthone's ability to induce autophagy in cancer cells and thus provide anti-cancer property. 1×10^5/ml HeLa LC3-GFP cells are seeded in a 35 mm×10 mm culture dish and preincubated for 24 hours before treatment with griffipavixanthone. HeLa LC3-GFP cells are treated with vehicle (control), 1 μM, 5 μM, 10 μM and 20 μM for 24 hours. After treatment of griffipavixanthone, the medium is removed from the dish and 4% methyl aldehyde with 0.3% triton-100 is added for fastening and permeation. The staining solution DAPI is added. Fluorescence of the bound dyes is analyzed using a laser scanning confocal microscope (FV10i, OlympusCorporation, Japan). […] Griffipavixanthone induces autophagy in cervical cancer cells at concentration and time dependent manner.

In data set [1] the test system is HeLa cells. As to the kind of experiment: MTT cytotoxic assay. It counts as cell-based. As to conditions: 0.1-20 μM, 72 hours; FIG. 3. Here is the method:
Human cervical cancer cell lines HeLa are maintained in DMEM (Invitrogen) supplemented with 10% newborn calf serum (Gibco, Life technologies Corporation, New Zealand), 1% penicillin/streptomycin (Invitrogen). Cells are maintained in a humidified atmosphere containing 5% CO2 at 37° C.
4×10^4/ml HeLa cells are seeded in a 96-well plate and preincubated for 24 hours before treatment with Griffipavixanthone (0.1-20 μM). After 72 hours, 10 μl of MTT solution (5 mg/ml) (Sigma Chemical Company, St. Louis, Mo., USA) are added to each well for 4 hours. The resulting crystals are dissolved in DMSO. The controls are native cells treated with medium only. The spectrophotometric absorbance at 570 nm is measured using a microplate reader (Synergy HT, Bio-Tek Instruments Inc., Winooski, Vt., USA). The percentage cytotoxicity is calculated by the formula: Percentage cytotoxicity (cell death)=[1-(absorbance of experimental wells/absorbance of control wells)]×100%.

Data set [2] has as its system HeLa cells. As to the kind of experiment: Flow cytometer (FACS, PI staining) analysis of cell death. The class given is cell-based, human. The note with it: 1 and 10 μM, 24 hours; DMEM vs EBSS (serum-free medium); FIG. 4. As to the method:
3×10^5/ml HeLa cells are treated with Griffipavixanthone (1 and 10 μM) for 24 hours. Cells are trypsinized and fixed in ice-cold 100% methanol overnight at 4° C. Cells are washed, incubated with the staining solution (100 μg/ml RNase A and 20 μg/ml PI in Phosphate Buffer Saline (PBS) with 5% NBCS) for 60 minutes, and subjected to fluorescence activated cell sorting (FACS) analysis on a FACScan flowcytometer (BD PharMingen, USA). Data are analyzed using the FlowJo software.

Data set [3] deals with HeLa cells. As to the kind of experiment: Western blot analysis of LC3-I, LC3-II and p62 expression. It counts as cell-based, human. As to conditions: 0, 1 and 5 μM, 24 hours; FIG. 5. As to the method:
6×10^5/ml HeLa cells are treated with Griffipavixanthone (0, 1 and 5 μM) for 24 hours. Cells are collected and cleavaged by RIPA and PMSF. Proteins are extracted and separated by 12% gel SDS-PAGE, and then are transferred to PVDF. Membranes are blocked with 5% nonfat dry milk in TBST for 0.5 hour. They are incubated and exposed with the respective primary antibodies, testing the content change of protein. The primary antibodies used to detect proteins in autophagy pathway: LC3 (16, 18 kD), p62 (62 kD) and GAPDH (37 kD).

The test system of data set [4] is HeLa cells xenograft tumor. As to the kind of experiment: Inhibition of tumor growth in HeLa xenograft nude mouse model. The class given is in vivo, nude mice. As to conditions: intratumor injection 40 ng/kg/day or 80 ng/kg/day once every other day for 18 days; FIG. 6. As to the method: A total of 2×10^6 HeLa cells suspended in 100 μL of saline are inoculated s.c. into the right flank of 4-week-old male nude mice. Drug injections are made once the tumors reach an average volume of about 100 mm^3. Mice are divided randomly into two groups and subjected to intratumor injection of vehicle or Griffipavixanthone (40 ng/kg/day or 80 ng/kg/day) once every other day for 18 days. A total 2 μg/mouse and 4 μg/mouse are given to the two groups of mice in the 18 days treatment. Tumor volume is measured by caliper measurements (V=L×W^2/2). For intratumor injection, Griffipavixanthone is prepared in 0.5% dimethyl sulfoxide, 0.5% tween 80, and 99% PBS. […] The dosage of administered Griffipavixanthone is translated to a human dosage of 3.2 ng/kg/day to 6.4 ng/kg/day with the equation: human equivalent dose=animal dose×animal Km/human Km, where mouse Km factor is 3 and human Km factor is 37 as disclosed in Reagan-Shaw, S., Nihal, M. and Ahmad N., “Dose translation from animal to human studies revisited”, The FASEB Journal, Life Science Forum, disclosure of which is incorporated herein by reference in its entity.

For data set [5], the system named is leukemia cells, lung cancer cells and fibrosarcoma cells. As to conditions: Tetrahedron Letters 1998, 39: 9103-9106; cited from earlier work.

Structures are written as SMILES.

Regarding `CC1=CC2c3c(c(O)c(O)c4oc5cc(O)cc(O)c5c(=O)c34)C(c3cc(O)c(O)c4oc5cc(O)cc(O)c5c(=O)c34)C2C(C)(C)C1` (stereo not drawn) [Griffipavixanthone], in the data set with HeLa LC3-GFP cells, the “GFP-LC3 puncta formation (percentage of GFP-LC3 positive cells)” value was “increases GFP-LC3 puncta formation at concentration and time dependent manner”. For the same molecule, the “HeLa cell viability / cytotoxicity (MTT)” value in the data set on HeLa cells [1] was “inhibit HeLa cell lines at concentration dependent manner”. Besides, the “HeLa cell death (FACS)” value in the data set with HeLa cells [2] is reported as “induces HeLa cell death significantly in serum-free medium at concentration dependent manner”. In the data set with HeLa cells [3], the “Autophagosome accumulation (LC3-I, LC3-II, p62 immunoblot)” value is “increases autophagosome accumulation and induces autophagy”. Also, in data set [4], the “Tumor growth (tumor volume)” value was “growth of tumor is inhibited”. Also, the In vitro cytotoxicity entry in data set [5] is on record as “high in vitro cytotoxity”.
